Experimental data published in EP0348560A1, “Oral composition” (LION CORPORATION, priority 1988, dated 1990).

Test system: Streptococcus mutans (strain 6715)
Experiment: Incubation Adhesion Method: inhibition of dental plaque formation
Assay type: cell-based
Conditions: for Synergistic effect: class by inhibiting rate; for formation of dental plaque: combined with α-bisabolol, conclusion in words from Table 1
Experimental: α-Bisabolol, menthol, eugenol, 3-octanol, methyl salicylate, carvone and cineol are used as samples to evaluate their effects on inhibiting the formation of dental plaque by Incubation Adhesion Method.
Incubation Adhesion Method
A predetermined amount (0, 4 or 8 µg/mℓ) of α-bisabolol and 125 µg/mℓ of menthol, eugenol, 3-octanol, methyl salicylate, carvone or cineol were added to a BHI (brain heart infusion) medium containing 1% of sucrose. Then, Streptococcus mutans (strain 6715) was inoculated to the medium and incubated at 37°C for 16 hours under an anaerobic condition (N₂: CO₂ :H₂ = 80:10:10). After incubation, the resulting dental plaque was washed twice with water and dispersed in the same amount of 0.5-N NaOH solution. To determine the amount of dental plaque formed, the suspension of dental plaque was examined for absorbance (turbidity) at a wavelength of 550 nm.
Inhiviting rate of dental plaque formation (%) [formula] A : Absorbance (O.D. 550nm) of the control B : Absorbance (O.D. 550nm) of the sample

[1] = 125 µg/mℓ sample alone, content of α-bisabolol 0 µg/mℓ, BHI medium with 1% sucrose, 37°C, 16 hours, anaerobic
[2] = 125 µg/mℓ sample combined with α-bisabolol 4 µg/mℓ, BHI medium with 1% sucrose, 37°C, 16 hours, anaerobic
[3] = 125 µg/mℓ sample combined with α-bisabolol 4 µg/mℓ
[4] = 125 µg/mℓ sample combined with α-bisabolol 8 µg/mℓ, BHI medium with 1% sucrose, 37°C, 16 hours, anaerobic
[5] = 125 µg/mℓ sample combined with α-bisabolol 8 µg/mℓ
[6] = α-bisabolol 4 µg/mℓ alone (line 'Control', no sample added)
[7] = α-bisabolol 8 µg/mℓ alone (line 'Control', no sample added)

Row | Compound | Amount of dental plaque formation (O.D., 550nm) [1] [O.D.] | Inhibiting rate of dental plaque formation (%) [1] [%] | Amount of dental plaque formation (O.D., 550nm) [2] [O.D.] | Inhibiting rate of dental plaque formation (%) [2] [%] | Synergistic effect [3] | Amount of dental plaque formation (O.D., 550nm) [4] [O.D.] | Inhibiting rate of dental plaque formation (%) [4] [%] | Synergistic effect [5] | formation of dental plaque | Amount of dental plaque formation (O.D., 550nm) [6] [O.D.] | Inhibiting rate of dental plaque formation (%) [6] [%] | Amount of dental plaque formation (O.D., 550nm) [7] [O.D.] | Inhibiting rate of dental plaque formation (%) [7] [%]
1 | CC12CCC(CC1)C(C)(C)O2 [Cineol, cineol, reference compound] | 0.62 | 0 | 0.59 | 4.8 | × (Inhibiting rate is less than 20%) | 0.53 | 14.5 | × (Inhibiting rate is less than 20%) | – | – | – | – | –
2 | CC1CCC(C(C)C)C(O)C1 (stereo not shown) [Menthol, menthol] | 0.60 | 3.2 | 0.01 | 98.4 | ⓞ (Inhibiting rate is not less than 80%) | 0.01 | 98.4 | ⓞ (Inhibiting rate is not less than 80%) | synergistically suppressed | – | – | – | –
3 | C=C(C)C1CC=C(C)C(=O)C1 (stereo not shown) [Carvone, carvone, reference compound] | 0.62 | 0 | 0.60 | 3.2 | × (Inhibiting rate is less than 20%) | 0.42 | 32.3 | Δ (Inhibiting rate is not less than 20%, less than 50 %) | – | – | – | – | –
4 | CCCCCC(O)CC (stereo not shown) [3-Octanol, 3-octanol] | 0.59 | 4.8 | 0.58 | 6.5 | × (Inhibiting rate is less than 20%) | 0.06 | 90.3 | ⓞ (Inhibiting rate is not less than 80%) | synergistically suppressed | – | – | – | –
5 | COC(=O)c1ccccc1O [Methyl salicylate, methyl salicylate, reference compound] | 0.61 | 1.6 | 0.61 | 1.6 | × (Inhibiting rate is less than 20%) | 0.39 | 37.1 | Δ (Inhibiting rate is not less than 20%, less than 50 %) | – | – | – | – | –
6 | C=CCc1ccc(O)c(OC)c1 [Eugenol, eugenol] | 0.62 | 0 | 0.60 | 3.2 | × (Inhibiting rate is less than 20%) | 0.02 | 96.8 | ⓞ (Inhibiting rate is not less than 80%) | synergistically suppressed | – | – | – | –
7 | α-bisabolol | – | – | – | – | – | – | – | – | – | 0.61 | 1.6 | 0.60 | 3.2
